Experimental data: US11191811B2, “Osteocalcin as a treatment for frailty associated with aging” (THE TRUSTEES OF COLUMBIA UNIVERSITY IN THE CITY OF NEW YORK, priority 2014, dated 2021)

Experiments:
Assay type in all cases: cell-based, mouse
Gprc6a−/− myotubes [1] = experiment: cAMP accumulation in myotubes; conditions: Ocn 10 ng/ml
Description: (§1) FIG. 25. Osteocalcin signaling in myofibers is necessary for muscle function during exercise. (A) Serum total osteocalcin (Ocn) and insulin (Ins) levels measured in mice at rest or after a single bout of exercise (40 min, 30 cm/s running on a treadmill) (n=7 per group). (B) Serum uncarboxylated (uncarb)-Ocn levels measured in mice at rest and 0, 1, 2 and 4 hours after a single bout of exercise (40 min, 30 cm/s running on a treadmill) (n=7 per group). (C) Serum CTX levels in mice at rest and after a single bout of exercise (n=7 per group). (D) Performance during endurance exercise of 3 month-old female Ocn-deficient and WT littermates (n=8-10 per group). (E) Performance during endurance exercise of 3 month-old Ocn f/f and OcnOsb−/− littermates (n=3-5 per group). (F) Performance during endurance exercise of 3 month-old female Gprc6a-deficient and WT littermates (n=8-10 per group). (G) Gprc6a expression in various tissues. (H) Gprc6a expression in EDL and soleus muscles (n=3). (I) In situ hybridization analysis of Gprc6a expression in soleus muscle. (J) Gprc6a expression in WT and Ocn−/− muscles (n=6 per group). […]
(§2) Serum osteocalcin, PINP, CTX, and insulin levels were measured using ELISA assays. Blood glucose level was measured using an Accu-Check glucometer. Urine 3-MHT was measured as previously described (Aranibar et al., 2011, Anal. Biochem. 410:84-91). […]

WT myotubes [2] = experiment: cAMP accumulation in myotubes; conditions: Ocn 10 ng/ml
Description: as §1, §2

Gprc6a−/− myotubes [3] = experiment: Gene expression (qPCR) in myotubes treated with Ocn
Description: Serum osteocalcin, PINP, CTX, and insulin levels were measured using ELISA assays. Blood glucose level was measured using an Accu-Check glucometer. Urine 3-MHT was measured as previously described (Aranibar et al., 2011, Anal. Biochem. 410:84-91). Determination of cAMP accumulation was performed using a commercial kit (R&D). For gene expression, 1 μg of total RNA was reverse transcribed into cDNA. qPCR analyses were performed using a SYBER green master mix (Applied Biosciences) and a CFX-Connect real time PCR (Bio-Rad). Relative expression levels of each gene were normalized to that of Hprt or Gapdh. For in situ hybridization, muscle was frozen in liquid N2-cooled methylbutane. Samples were sectioned at 10 μm using a cryostat. In situ hybridization was performed with a DIG-labeled riboprobe as previously described (Oury et al., 2011, Cell 144:796-809).
(§3) Culture of skeletal muscle myoblasts from 7 day-old mice was performed as described (Gharaibeh et al., 2008, Nature Protocols 3:1501-1509). Myoblasts were differentiated into myotubes for 3-4 days in a medium containing 5% horse serum. Muscle fibers were isolated from flexor digitorum brevis muscle. Muscles were dissected with DMEM 2% collagenase for 2 hours at 37° C., in a 5% CO2 incubator. Muscle fibers were disaggregated from the tissue using a wide bore pipet and plated in matrigel-coated plates at approximately 50% confluence. […]

Gprc6a−/− myotubes [4] = experiment: 14C-oleate (fatty acid) oxidation in myotubes
Description: (§4) Glucose and insulin tolerance tests were performed as previously described (Lee et al., 2007, Cell 130:456-469). For in vivo glucose uptake, a bolus of 2-deoxy-d-[^3H]glucose (^3H-2-DG, Perkin Elmer) (10 μCi) was administered before an endurance run. ^3H-2-DG and ^3H-2-DG-6-P content in muscle was determined by liquid scintillation counter and normalized to muscle weight. Glucose uptake and fatty acid oxidation assays in myotubes were performed as previously described (Sebastian et al., 2007, Am. J. Physiol. Endocrinol. Metab. 292:E667-686). GLUT4 translocation was determined by flow cytometry using an antibody against the extracellular domain of the GLUT4 protein (Santa Cruz, Sc-1606). Measurements of oxygen consumption rates (OCR) in isolated myofibers were performed using a XF24 Seahorse Analyzer® (Seahorse Biosciences). To analyze mitochondrial function, myofibers were treated with three compounds in succession (oligomycin 10 μg/ml, FCCP 200 μM, rotenone 0.2 μM) and OCR was recorded following administration of each of them.
(§5) Culture of skeletal muscle myoblasts from 7 day-old mice was performed as described (Gharaibeh et al., 2008, Nature Protocols 3:1501-1509). Myoblasts were differentiated into myotubes for 3-4 days in a medium containing 5% horse serum. Muscle fibers were isolated from flexor digitorum brevis muscle. Muscles were dissected with DMEM 2% collagenase for 2 hours at 37° C., in a 5% CO2 incubator. Muscle fibers were disaggregated from the tissue using a wide bore pipet and plated in matrigel-coated plates at approximately 50% confluence. After overnight incubation, isolated myofibers were used.

WT myotubes [5] = experiment: 14C-oleate (fatty acid) oxidation in myotubes
Description: as §4, §5

Gprc6a−/− myotubes [6] = experiment: 3H-2-deoxyglucose uptake in myotubes; conditions: serum-free conditions
Description: (§6) The main nutrient used by muscle to generate energy at the onset of exercise is glucose and osteocalcin increased the uptake of ^3H-2-deoxyglucose (^3H-2DG) in WT but not in Gprc6a−/− myotubes (FIG. 26D-E). To exclude the involvement of other secreted molecules, this experiment was performed in serum-free conditions. […] This decrease in glucose uptake in muscles of Gprc6aMck−/− mice provides an explanation for why blood glucose levels were two-fold higher in Gprc6aMck−/− and Gprc6aHsa−/− than in control mice after exercise (FIG. 26G-H).
as §4
as §3, with “incubator.” for “incubator. Muscle fibers were disaggregated from the tissue using a wide bore pipet and plated in matrigel-coated plates at approximately 50% confluence.”

WT myotubes [7] = experiment: 3H-2-deoxyglucose uptake in myotubes
Description: as §6, §4
as §3, with “incubator.” for “incubator. Muscle fibers were disaggregated from the tissue using a wide bore pipet and plated in matrigel-coated plates at approximately 50% confluence.”

WT myotubes [8] = experiment: Western blot of Akt phosphorylation (Ser473) in cultured myotubes; conditions: Ocn 10 ng/ml
Description: FIG. 26. Osteocalcin signaling in myofibers promotes glucose uptake. (A) VO2, (B) VO2 max and (C) RER in female Gprc6af/f and Gprc6aMck−/− mice during a gradual speed increase test. (D-E) Uptake of ^3H-2-deoxyglucose (^3H-2-DG) in WT and Gprc6a−/− myotubes treated with vehicle or Ocn (dose indicated in panel D, 10 ng/ml in panel E). (F) Uptake of ^3H-2-DG in glycolytic (Gly—white quadriceps) and oxidative (Ox—red quadriceps) muscles after a single bout of exercise in Gprc6af/f and Gprc6aMck^−/− mice (n=4 per group). (G) Blood glucose levels in Gprc6af/f and Gprc6aMck−/− mice after running on a treadmill until exhaustion (n=4 per group). (H) Blood glucose levels in Gprc6af/f and Gprc6aHsa−/− mice after running on a treadmill until exhaustion (n=4 per group). (I) Western blot analyses of Akt phosphorylation (Ser473) in WT myotubes treated with Ocn (10 ng/ml) and in muscles of WT mice injected with Ocn (500 ng/g) after a single bout of exercise. (J) Western blot analyses of Akt phosphorylation (Ser473) in Gprc6af/f and Gprc6aMck−/− muscles after a single bout of exercise. (K) Glycogen content and glycogen breakdown in Gprc6af/f and Gprc6aMck−/− muscles at rest and after exercise.
Culture of skeletal muscle myoblasts from 7 day-old mice was performed as described (Gharaibeh et al., 2008, Nature Protocols 3:1501-1509). […]

## uncarboxylated osteocalcin: Recombinant uncarboxylated mouse osteocalcin, bacterially produced, purified on glutathione beads and cleaved from the GST subunit by thrombin (YLGASVPSPDPLEPTREQCELNPACDELSDQYGLKTAYKRIYGITI)
Gprc6a−/− myotubes [1]
  cAMP production: did not increase
WT myotubes [2]
  cAMP production: increase
Gprc6a−/− myotubes [3]
  expression of Il6: not
Gprc6a−/− myotubes [4]
  14C-oleate oxidation: could not increase
WT myotubes [5]; WT myotubes
  14C-oleate oxidation: increase
WT myotubes [5]; summary statement, in muscle
  fatty acid oxidation: favors
Gprc6a−/− myotubes [6]
  uptake of 3H-2-deoxyglucose (3H-2DG): not
WT myotubes [7]; WT myotubes, serum-free conditions
  uptake of 3H-2-deoxyglucose (3H-2DG): increased
WT myotubes [7]; as worded in FIG. 19 (wild-type) and summary (in muscle)
  glucose uptake: favors
WT myotubes [8]
  phosphorylation of Akt in cultured myotubes: induced
